Reference: patent US20240082212A1, “USE OF MDMA FOR TREATMENT OF STRESS-RELATED DISORDERS” (priority 2022, published 2024)
Entries after “also recorded” stand apart in the source; their conditions may differ.

Experiments:
Serotonin 5-HT2B = Serotonin 5-HT2B (Homo sapiens, UniProt P41595); assay: Eurofins Panlabs radioligand binding panel, serotonin 5-HT2B
cortical neurons = assay: Neurite outgrowth in embryonic rat cortical neuron cultures; type: cell-based; settings: 3 days, vs 0.1% sterile water vehicle
Text: Female Wistar rats of 17 days gestation were killed by cervical dislocation and the fetuses (typically 6 to 8 in number) were removed from the uteri. Fetal brains were placed in ice-cold medium of Leibovitz (L15, Gibco, France). Cortex was dissected and meninges were carefully removed. The cortical neurons were dissociated by trypsinization (trypsin-EDTA, Gibco) in the presence of DNAse I (Roche, France). The reaction was stopped by addition of Dulbecco's Modified Eagle Medium (DMEM; Gibco) with 10% of fetal bovine serum (FBS; Gibco). The suspension was triturated with a 10-ml pipette and a 21-gauge needle syringe and centrifuged. The pellet of dissociated cells was resuspended in a medium consisting of Neurobasal (Gibco) supplemented with 2% B27 supplement (Gibco), 0.5 mM L-Glutamine (Gibco), and an antibiotic-antimycotic mixture. Viable cells were counted in a Neubauer cytometer and cells were seeded in 96-well plates (Costar) precoated with poly-L-lysine at 10,000 cells/well. […] Stock solutions were prepared in sterile water at 10 mM and stored at −20° C. until used. Further dilutions were prepared in culture in the medium on the day of the treatment. 0.1% Sterile water was present in all tested conditions.
The experimental protocol was performed in two independent cultures (i.e., from two different pregnant rats). For each culture, each condition was tested in sextuplet (6 wells per condition per culture for a total of 12 wells per condition). […] After three days of plating and compound treatment (Day 3), cultures were fixed with paraformaldehyde in phosphate buffered saline at 4° C. (PBS, 4%, Sigma). All subsequent steps were performed at room temperature. Cells were successively permeabilized for 30 minutes using 0.1% triton, saturated with PBS containing 3% bovine serum albumin (BSA) and incubated for 1 hour with anti-beta III tubulin antibody (T5168, Sigma). […] Finally, nuclei were stained with 4′-6-diamidino-2-phenylindole (DAPI). After rinsing the cells with PBS, the plate was imaged and neurite networks were examined and analyzed using a High-Content Screening platform (CellInsight CXS, Thermo Scientific) with integrated Photometrics high-resolution fluorescent camera, Olympus objective (10×) and HCS Studio Cell Analysis Software. Approximately 2,000 neurons per well were analyzed using a validated cortex neuron outgrowth algorithm that utilizes parameters optimized for analysis of embryonic rat cortical neuron cultures. The HCS Studio Cell Analysis Software output included values for neurite total count (#), neurite total length (μm) and total number of branch points (#) for each of the 6 wells per culture. The evaluation of neurite outgrowth was performed using the average number of neurites per neuron (#), the average of total neurite length per neuron (μm) and the average number of branch points per neuron (#) across 12 wells. Data also was transformed to percent (%) of the average vehicle control value. Results were expressed as mean (±s.e.m.) of the transformed (% of vehicle control) data. Statistical analyses were performed on transformed percent of the average vehicle control data for each measure for each test article using one-way analysis of variance (Anova, StatView). Where applicable, Dunnett's test was used for multiple pairwise comparisons to the negative control (vehicle) condition. […] The level of significance was set at p value less than or equal to 0.05 (*p<0.05).

CD (Sprague Dawley) rats = assay: Rat functional observation battery (FOB) neurobehavioral evaluation after cumulative SC dosing; type: in vivo
Experimental: The observations were assessed through a rat functional observation battery (FOB) and continuous physiological measurements on the day of cumulative dosing, which are provided in further detail below.
Methods. A total of 42 adult male CD® (Sprague Dawley) rats (Charles River Laboratories) were surgically implanted with DSI radiotelemetry devices by personnel at Charles River Laboratories Raleigh, NC, per their test site SOPs. Telemetry devices supported continuous recording of temperature, activity, blood pressure and heart rate. Telemeterized rats were shipped to the Charles River Laboratories testing facility (Mattawan, MI) and acclimated to the environment for at least 1 week prior to experimentation. Animals were pair-housed in solid bottom cages with nonaromatic bedding. On the dosing day, animals were singly housed and then returned to the paired cohort following the dosing/telemetry recording phase. Diet (Lab Diet® Certified Rodent Diet #5CR4) and tap water via an automatic water system were available ad libitum, except during designated procedures. Temperature and humidity were maintained according to the Testing Facility SOP. Animals were randomized into treatment groups using a standard, by weight, measured value randomization procedure. Body weight was determined for each rat prior to dosing.
As illustrated in the Table, a total of 36 rats were included in the study. The vehicle and 2 test article doses were administered in a volume of 1 mL/kg to each of 3 groups of n=12 telemeterized rats via subcutaneous injection four times on a given day, followed by neurobehavioral evaluations. This series was repeated 3 times on study. Each group received all 3 dose levels of the applicable test or control article in ascending order with a 1-week washout between dose levels.
Mortality/cage side clinical observations were conducted for all study animals at least twice daily beginning upon receipt through termination, except on days of receipt and termination where frequency was at least once daily. Detailed clinical observations were conducted for all study animals prior to each of the four cumulative doses in a series. Individual body weights were conducted for all study animals at transfer, prior to randomization, on the day of dosing on each of the 3 cycles of dosing. The body weights recorded at transfer and prior to randomization are not reported but are maintained in the study file. Veterinary care was available throughout the course of the study, and animals were examined by the veterinary staff as needed based on clinical signs or other changes. All animals were provided with HydroGel the night prior to their respective dosing days to potentially mitigate any animal welfare issues related to fluid loss/dehydration.
Neurobehavioral evaluations (blinded) were conducted for all study animals 1 hour following the last (4th) cumulative dose of the series. The neurobehavioral parameters evaluated included: activity measurements (arousal/alertness, posture/body carriage, stereotypy, rearing, and appearance), autonomic measurements (exophthalmus, lacrimation, erected fur, pupil response, salivation, defecation, and palpebral closure/ptosis), excitability measurements (vocalizations, startle response, ease of removal, handling reactivity, and convulsions), neuromuscular measurements (gait/mobility, grip strength/response, air righting reflex, tremor, and body tone), physiological measurements (respiration and body temperature), and sensorimotor measurements (touch response/tactile reflex and thermal response).

[1] = 1 h after last of 4 hourly SC injections, R-MDMA and racemic MDMA 10, 20 mg/kg/day, S-MDMA 5, 10 mg/kg/day
[2] = FOB, cumulative SC dosing, dose groups stated in the value

Serotonin 5-HT2B, sequence (P41595 whole entry): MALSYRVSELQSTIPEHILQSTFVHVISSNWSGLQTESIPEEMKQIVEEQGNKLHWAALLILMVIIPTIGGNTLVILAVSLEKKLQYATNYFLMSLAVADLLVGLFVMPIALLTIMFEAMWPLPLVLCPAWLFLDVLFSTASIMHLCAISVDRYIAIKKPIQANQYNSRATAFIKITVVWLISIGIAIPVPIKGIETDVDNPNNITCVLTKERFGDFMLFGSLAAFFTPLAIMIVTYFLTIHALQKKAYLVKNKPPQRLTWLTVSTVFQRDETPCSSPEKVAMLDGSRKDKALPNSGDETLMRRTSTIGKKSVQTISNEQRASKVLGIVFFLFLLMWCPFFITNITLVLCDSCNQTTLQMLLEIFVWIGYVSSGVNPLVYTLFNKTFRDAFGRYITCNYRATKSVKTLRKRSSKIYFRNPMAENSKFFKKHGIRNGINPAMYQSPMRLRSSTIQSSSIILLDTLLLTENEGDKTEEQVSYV

CNC(C)Cc1ccc2c(c1)OCO2 (single isomer, unassigned) [R-MDMA, R(−)-3,4-methylenedioxymethamphetamine]
inhibition at 10 µM (Serotonin 5-HT2B; 10 uM, read-out: % inhibition of binding or activity): 79%
IC50 (Serotonin 5-HT2B; IC50, 10 half-log concentrations, 0.3 nM to 10 μM, duplicate): 1400 nM
Ki (Serotonin 5-HT2B; Ki, 10 half-log concentrations, 0.3 nM to 10 μM, duplicate): 890 nM
neurite number (#) (cortical neurons; 0.0001 μM): significantly increased
neurite number (#) (cortical neurons; 10 μM): significantly increased
neurite total length (μm) (cortical neurons; 10 μM): significantly increased
total number of branch points (#) (cortical neurons; 10 μM): significantly increased
arousal/alertness and rearing (CD (Sprague Dawley) rats; [1]): dose-dependent decreases in arousal/alertness and rearing
ease of removal from the home cage and handling reactivity (excitability) (CD (Sprague Dawley) rats; [1]): Dose-dependent increased difficulty in removal from the home cage and increased handling reactivity
forelimb grip strength (CD (Sprague Dawley) rats; [1]): dose-dependent statistically significant decreases in forelimb grip strength
salivation and erected fur (autonomic) (CD (Sprague Dawley) rats; [1]): Dose-dependent increased salivation and erected fur
unkempt appearance (CD (Sprague Dawley) rats; [1]): increased incidence of unkempt appearance in a dose-dependent manner
stereotypies (mouth movements/weaving, circling/retropulsion, sniffing) (CD (Sprague Dawley) rats; 1 h after last of 4 hourly SC injections, highest doses: S-MDMA 10, racemic-MDMA 20 mg/kg/day, R-MDMA 10, 20 mg/kg/day): No stereotypical behaviors were reported
Rank Order Activity Measurement Effects (CD (Sprague Dawley) rats; [2]): S-MDMA (5 mg/kg/day) < R-MDMA (10 mg/kg/day) < Rac.-MDMA (10 mg/kg/day); also recorded: Rac.-MDMA (20 mg/kg/day) < S-MDMA (10 mg/kg/day) < R-MDMA (20 mg/kg/day); also recorded: R-MDMA (0 mg/kg/day) < R-MDMA (10 mg/kg/day) < R-MDMA (20 mg/kg/day); also recorded: Rac.-MDMA (20 mg/kg/day) < S-MDMA (10 mg/kg/day) < R-MDMA (10 mg/kg/day)
Rank Order Autonomic Measurement Effects (CD (Sprague Dawley) rats; [2]): R-MDMA (10 mg/kg/day) < S-MDMA (5 mg/kg/day) < Rac.-MDMA (10 mg/kg/day); also recorded: R-MDMA (20 mg/kg/day) < S-MDMA (10 mg/kg/day) < Rac-MDMA (20 mg/kg/day); also recorded: R-MDMA (0 mg/kg/day) < R-MDMA (10 mg/kg/day) < R-MDMA (20 mg/kg/day); also recorded: R-MDMA (10 mg/kg/day) < S-MDMA (10 mg/kg/day) = Rac-MDMA (20 mg/kg/day)
Rank Order Excitability Measurement Effects (CD (Sprague Dawley) rats; [2]): R-MDMA (10 mg/kg/day) < S-MDMA (5 mg/kg/day) < Rac.-MDMA (10 mg/kg/day); also recorded: R-MDMA (20 mg/kg/day) = S-MDMA (10 mg/kg/day) < Rac-MDMA (20 mg/kg/day); also recorded: R-MDMA (0 mg/kg/day) < R-MDMA (10 mg/kg/day) < R-MDMA (20 mg/kg/day); also recorded: R-MDMA (10 mg/kg/day) < S-MDMA (10 mg/kg/day) < Rac-MDMA (20 mg/kg/day)
Rank Order Neuromuscular Measurement Effects (CD (Sprague Dawley) rats; [2]): R-MDMA (10 mg/kg/day) < S-MDMA (5 mg/kg/day) < Rac.-MDMA (10 mg/kg/day); also recorded: R-MDMA (20 mg/kg/day) = S-MDMA (10 mg/kg/day) < Rac-MDMA (20 mg/kg/day); also recorded: R-MDMA (0 mg/kg/day) < R-MDMA (10 mg/kg/day) < R-MDMA (20 mg/kg/day); also recorded: R-MDMA (10 mg/kg/day) < S-MDMA (10 mg/kg/day) < Rac-MDMA (20 mg/kg/day)
Rank Order Physiological Measurement Effects (CD (Sprague Dawley) rats; [2]): R-MDMA (10 mg/kg/day) < S-MDMA (5 mg/kg/day) < Rac.-MDMA (10 mg/kg/day); also recorded: R-MDMA (20 mg/kg/day) < S-MDMA (10 mg/kg/day) = Rac-MDMA (20 mg/kg/day); also recorded: R-MDMA (0 mg/kg/day) = R-MDMA (10 mg/kg/day) = R-MDMA (20 mg/kg/day); also recorded: R-MDMA (10 mg/kg/day) < S-MDMA (10 mg/kg/day) = Rac-MDMA (20 mg/kg/day)
Rank Order Sensorimotor Measurement Effects (CD (Sprague Dawley) rats; [2]): S-MDMA (5 mg/kg/day) < Rac-MDMA (10 mg/kg/day) < R-MDMA (10 mg/kg/day); also recorded: S-MDMA (10 mg/kg/day) < Rac-MDMA (20 mg/kg/day) < R-MDMA (20 mg/kg/day); also recorded: R-MDMA (0 mg/kg/day) < R-MDMA (10 mg/kg/day) < R-MDMA (20 mg/kg/day)
thermal response times (CD (Sprague Dawley) rats; at levels at least two-fold that of vehicle-treated groups, 1 h after last of 4 hourly SC injections): Statistically significant increases in thermal response times
